Measured values as given in US20250026778A1 (TIUMBIO CO., LTD., priority 2021, published 2025).

target: T1, his-galectin-3 (Homo sapiens, UniProt P17931); experiment: TR-FRET assay (in vitro galectin-3 binding inhibitory activity test); conditions: Table 1; compound at 20 μM; 60 nM his-galectin-3, 15 nM biotin-ASF
T1 construct: purchased Abcam
Procedure, shortened: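 Compound is premixed with his-galectin-3 (60 nM final), then biotin-ASF (15 nM), Tb anti-His antibody (2 nM) and streptavidin-d2 (20 nM) are added. After at least 3.5 hours at RT in HEPES/NaCl buffer with Tween 20 and BSA, TR-FRET is read at 615/665 nm. DMSO serves as the uninhibited control, ASF omission as background.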

T1 sequence (P17931 whole entry): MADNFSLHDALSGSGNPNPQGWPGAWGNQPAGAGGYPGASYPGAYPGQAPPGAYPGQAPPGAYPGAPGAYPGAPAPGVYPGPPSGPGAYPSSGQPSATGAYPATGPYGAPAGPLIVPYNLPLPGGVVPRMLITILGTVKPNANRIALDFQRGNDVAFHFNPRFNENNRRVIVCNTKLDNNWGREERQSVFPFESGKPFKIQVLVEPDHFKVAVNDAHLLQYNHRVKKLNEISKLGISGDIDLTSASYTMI

SMILES | % Inhibitory activity (at 20 μM)
O=C1CCCC2(O[C@H](CO)[C@H](O)[C@H](n3cc(-c4cc(F)c(F)c(F)c4)nn3)[C@H]2O)N1CC(F)F (stereo partly drawn) [Compound A94, (2R,3R,4S,5R)-7-(2,2-difluoroethyl)-3.5-dihydroxy-2-(hydroxymethyl)-4-(4-(3,4,5-trifluorophenyl)-1H-1,2,3-triazol-1-yl)-1-oxa-7-azaspiro[5.5]undecan-8-one] | D (inhibition rate was less than 25%)

same assay, conditions: Table 1; compound at 20 μM; 60 nM his-galectin-3, 15 nM biotin-ASF; read-out: % Inhibitory activity (at 20 μM)

SMILES | inhibition at 20 µM [%]
OC[C@H]1O[C@]2(OCC[C@H]2NCc2cccnc2)[C@H](O)[C@@H](n2cc(-c3cc(F)c(F)c(F)c3)nn2)[C@H]1O [Compound A85] | > 75
OC[C@H]1O[C@]2(OCC[C@H]2NCc2cccc(Cl)c2)[C@H](O)[C@@H](n2cc(-c3cc(F)c(F)c(F)c3)nn2)[C@H]1O [Compound A86, (4R,5S,7R,8R,9S,10R)-4-((3-chlorobenzyl)amino)-7-(hydroxymethyl)-9-(4-(3,4,5-trifluorophenyl)-1H-1,2,3-triazol-1-yl)-1,6-dioxaspiro[4.5]decane-8,10-diol] | > 75
OC[C@H]1O[C@]2(OCC[C@H]2NCc2ccccc2F)[C@H](O)[C@@H](n2cc(-c3cc(F)c(F)c(F)c3)nn2)[C@H]1O [Compound A87, (4R,5S,7R,8R,9S,10R)-4-((2-fluorobenzyl)amino)-7-(hydroxymethyl)-9-(4-(3,4,5-trifluorophenyl)-1H-1,2,3-triazol-1-yl)-1,6-dioxaspiro[4.5]decane-8,10-diol] | 25 to 50
OC[C@H]1O[C@@]2(CCCO2)[C@H](OCc2cccc(C(F)(F)F)c2)[C@@H](n2cc(-c3cc(F)c(F)c(F)c3)nn2)[C@H]1O [Compound A90, (5S,7R,8R,9S,10R)-7-(hydroxymethyl)-10-((3-(trifluoromethyl)benzyl)oxy)-9-(4-(3,4,5-trifluorophenyl)-1H-1,2,3-triazol-1-yl)-1,6-dioxaspiro[4.5]decan-8-ol] | < 25
OC[C@H]1O[C@@]2(CCCO2)[C@H](OCc2cccc(F)c2)[C@@H](n2cc(-c3cc(F)c(F)c(F)c3)nn2)[C@H]1O [Compound A91, (5S,7R,8R,9S,10R)-10-((3-fluorobenzyl)oxy)-7-(hydroxymethyl)-9-(4-(3,4,5-trifluorophenyl)-1H-1,2,3-triazol-1-yl)-1,6-dioxaspiro[4.5]decan-8-ol] | < 25
O=C(O[C@@H]1[C@@H](n2cc(-c3cc(F)c(F)c(F)c3)nn2)[C@@H](O)[C@@H](CO)O[C@@]12CCCO2)c1cc(F)cc(F)c1 [Compound A92, (5S,7R,8R,9S,10R)-8-hydroxy-7-(hydroxymethyl)-9-(4-(3,4,5-trifluorophenyl)-1H-1,2,3-triazol-1-yl)-1,6-dioxaspiro[4.5]decan-10-yl 3,5-difluorobenzoate] | 25 to 50
O=C1CCCC2(N1)O[C@H](CO)[C@H](O)[C@H](n1cc(-c3cc(F)c(F)c(F)c3)nn1)[C@H]2OCc1ccccc1 (stereo partly drawn) [Compound A93, (2R,3R,4S,5R)-5-(benzyloxy)-3-hydroxy-2-(hydroxymethyl)-4-(4-(3,4,5-trifluorophenyl)-1H-1,2,3-triazol-1-yl)-1-oxa-7-azaspiro[5.5]undecan-8-one] | < 25
O=C1CCCC2(O[C@H](CO)[C@H](O)[C@H](n3cc(-c4cc(F)c(F)c(F)c4)nn3)[C@H]2O)N1CC1CCS(=O)(=O)CC1 (stereo partly drawn) [Compound A95, (2R,3R,4S,5R)-7-((1,1-dioxidotetrahydro-2H-thiopyran-4-yl)methyl)-3,5-dihydroxy-2-(hydroxymethyl)-4-(4-(3,4,5-trifluorophenyl)-1H-1,2,3-triazol-1-yl)-1-oxa-7-azaspiro[5.5]undecan-8-one] | < 25
OC[C@H]1O[C@]2(OCC[C@H]2NCc2cccc(C(F)(F)F)c2)[C@H](O)[C@@H](n2cc(-c3cc(F)c(F)c(F)c3)nn2)[C@H]1O [Compound A96, (4R,5S,7R,8R,9S,10R)-7-(hydroxymethyl)-4-((3-(trifluoromethyl)benzyl)amino)-9-(4-(3,4,5-trifluorophenyl)-1H-1,2,3-triazol-1-yl)-1,6-dioxaspiro[4.5]decane-8,10-diol] | < 25
OC[C@H]1O[C@]2(OCC[C@H]2NCc2ccc(Cl)cc2)[C@H](O)[C@@H](n2cc(-c3cc(F)c(F)c(F)c3)nn2)[C@H]1O [Compound A97, (4R,5S,7R,8R,9S,10R)-4-((4-chlorobenzyl)amino)-7-(hydroxymethyl)-9-(4-(3,4,5-trifluorophenyl)-1H-1,2,3-triazol-1-yl)-1,6-dioxaspiro[4.5]decane-8,10-diol] | < 25
OC[C@H]1O[C@]2(OCC[C@H]2NCc2ccccn2)[C@H](O)[C@@H](n2cc(-c3cc(F)c(F)c(F)c3)nn2)[C@H]1O [Compound A98, (4R,5S,7R,8R,9S,10R)-7-(hydroxymethyl)-4-((pyridin-2-ylmethyl)amino)-9-(4-(3,4,5-trifluorophenyl)-1H-1,2,3-triazol-1-yl)-1,6-dioxaspiro[4.5]decane-8,10-diol] | < 25
OC[C@H]1O[C@]2(CCCO2)[C@H](O)[C@@H](n2cc(-c3cc(F)c(F)c(F)c3)nn2)[C@H]1O [Compound A100, (5R,7R,8R,9S,10R)-7-(hydroxymethyl)-9-(4-(3,4,5-trifluorophenyl)-1H-1,2,3-triazol-1-yl)-1,6-dioxaspiro[4.5]decane-8,10-diol] | 25 to 50
OC[C@H]1OC2(CCCC2)[C@H](O)[C@@H](n2cc(-c3cc(F)c(F)c(F)c3)nn2)[C@H]1O [Compound A101, (7R,8R,9S,10R)-7-(hydroxymethyl)-9-(4-(3,4,5-trifluorophenyl)-1H-1,2,3-triazol-1-yl)-6-oxaspiro[4.5]decane-8,10-diol] | 25 to 50
OC[C@H]1O[C@]2(OCC[C@H]2NCc2cccc(Br)c2)[C@H](O)[C@@H](n2cc(-c3cc(F)c(F)c(F)c3)nn2)[C@H]1O [Compound A102, (4R,5S,7R,8R,9S,10R)-4-((3-bromobenzyl)amino)-7-(hydroxymethyl)-9-(4-(3,4,5-trifluorophenyl)-1H-1,2,3-triazol-1-yl)-1,6-dioxaspiro[4.5]decane-8,10-diol] | 25 to 50
CN(Cc1cccc(Cl)c1)[C@@H]1CCO[C@]12O[C@H](CO)[C@H](O)[C@H](n1cc(-c3cc(F)c(F)c(F)c3)nn1)[C@H]2O [Compound A103, (4R,5S,7R,8R,9S,10R)-4-((3-chlorobenzyl)(methyl)amino)-7-(hydroxymethyl)-9-(4-(3,4,5-trifluorophenyl)-1H-1,2,3-triazol-1-yl)-1,6-dioxaspiro[4.5]decane-8,10-diol] | < 25
OC[C@H]1O[C@]2(OCC[C@H]2NCC2CCCC2)[C@H](O)[C@@H](n2cc(-c3cc(F)c(F)c(F)c3)nn2)[C@H]1O [Compound A104, (4R,5S,7R,8R,9S,10R)-4-((cyclopentylmethyl)amino)-7-(hydroxymethyl)-9-(4-(3,4,5-trifluorophenyl)-1H-1,2,3-triazol-1-yl)-1,6-dioxaspiro[4.5]decane-8,10-diol] | < 25
O=C(N[C@@H]1CCO[C@]12O[C@H](CO)[C@H](O)[C@H](n1cc(-c3cc(F)c(F)c(F)c3)nn1)[C@H]2O)C1CCCC1 [Compound A107, N-((4R,5S,7R,8R,9S,10R)-8,10-dihydroxy-7-(hydroxymethyl)-9-(4-(3,4,5-trifluorophenyl)-1H-1,2,3-triazol-1-yl)-1,6-dioxaspiro[4.5]decan-4-yl)cyclopentancarboxamide] | 25 to 50

same assay, conditions: Table 3, found values; compound at 20 μM; 60 nM his-galectin-3, 15 nM biotin-ASF; read-out: % Inhibitory activity (at 20 μM)

SMILES | inhibition at 20 µM [%]
OC[C@H]1O[C@]2(OCC[C@H]2NCc2cccc(Cl)c2)[C@H](O)[C@@H](n2cc(-c3cc(F)c(F)c(F)c3)nn2)[C@H]1O [Compound A86, (4R,5S,7R,8R,9S,10R)-4-((3-chlorobenzyl)amino)-7-(hydroxymethyl)-9-(4-(3,4,5-trifluorophenyl)-1H-1,2,3-triazol-1-yl)-1,6-dioxaspiro[4.5]decane-8,10-diol] | 80.3
OC[C@H]1O[C@]2(CCCO2)[C@H](O)[C@@H](n2cc(-c3cc(F)c(F)c(F)c3)nn2)[C@H]1O [Compound A100, (5R,7R,8R,9S,10R)-7-(hydroxymethyl)-9-(4-(3,4,5-trifluorophenyl)-1H-1,2,3-triazol-1-yl)-1,6-dioxaspiro[4.5]decane-8,10-diol] | 48.1

same assay, conditions: read-out: % Inhibitory activity (at 20 μM), Table 1; compound at 20 μM; 60 nM his-galectin-3, 15 nM biotin-ASF

SMILES | inhibition at 20 µM [%]
C[C@@H](O[C@@H]1[C@@H](n2cc(-c3cc(F)c(F)c(F)c3)nn2)[C@@H](O)[C@@H](CO)O[C@@]12CCCCO2)C(=O)O [Compound A83, (R)-2-(((2R,3R,4S,5R,6S)-3-hydroxy-2-(hydroxymethyl)-4-(4-(3,4,5-trifluorophenyl)-1H-1,2,3-triazol-1-yl)-1,7-dioxaspiro[5.5]undecan-5-yl)oxy)propanoic acid] | 25 to 50
OC[C@H]1O[C@@]2(CCCO2)[C@H](OCc2cncc(F)c2)[C@@H](n2cc(-c3cc(F)c(F)c(F)c3)nn2)[C@H]1O [Compound A84, (5S,7R,8R,9S,10R)-10-((5-fluoropyridin-3-yl)methoxy)-7-(hydroxymethyl)-9-(4-(3,4,5-trifluorophenyl)-1H-1,2,3-triazol-1-yl)-1,6-dioxaspiro[4.5]decan-8-ol] | < 25
O=C1CCCC2(N1)O[C@H](CO)[C@H](O)[C@H](n1cc(-c3cc(F)c(F)c(F)c3)nn1)[C@H]2O (stereo partly drawn) [Compound A88, (2R,3R,4S,5R)-3,5-dihydroxy-2-(hydroxymethyl)-4-(4-(3,4,5-trifluorophenyl)-1H-1,2,3-triazol-1-yl)-1-oxa-7-azaspiro[5.5]undecan-8-one] | < 25
OC[C@H]1O[C@]2(OCC[C@H]2NCc2ccccc2)[C@H](O)[C@@H](n2cc(-c3cc(F)c(F)c(F)c3)nn2)[C@H]1O [Compound A105, (4R,5S,7R,8R,9S,10R)-4-(benzylamino)-7-(hydroxymethyl)-9-(4-(3,4,5-trifluorophenyl)-1H-1,2,3-triazol-1-yl)-1,6-dioxaspiro[4.5]decane-8,10-diol] | < 25
O=C(Cc1cccc(Cl)c1)N[C@@H]1CCO[C@]12O[C@H](CO)[C@H](O)[C@H](n1cc(-c3cc(F)c(F)c(F)c3)nn1)[C@H]2O [Compound A106, 2-(3-chlorophenyl)-N-((4R,5S,7R,8R,9S,10R)-8,10-dihydroxy-7-(hydroxymethyl)-9-(4-(3,4,5-trifluorophenyl)-1H-1,2,3-triazol-1-yl)-1,6-dioxaspiro[4.5]decan-4-yl)acetamide] | 50 to 75
